# According to PubChem BioAssay (NCI):
#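 A five-concentration, 48-hour dose response in 96-well plates underlies each endpoint, interpolated linearly between surrounding concentrations. Abbreviation: GI50, concentration required for 50% inhibition of growth. TGI marks complete inhibition of growth.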
# Tests used:
# Assay in all cases: DTP human tumour cell line panel, 48 h
# HCT-15 colon = test system: HCT-15 colon
# CCRF-CEM leukemia = test system: CCRF-CEM leukemia
# 786-0 renal = test system: 786-0 renal
# DU-145 prostate = test system: DU-145 prostate
# U251 CNS = test system: U251 CNS
# NCI-H460 lung = test system: NCI-H460 lung
# MALME-3M melanoma = test system: MALME-3M melanoma
# HOP-62 NSCLC = test system: HOP-62 NSCLC
# TK-10 renal = test system: TK-10 renal
# A549 NSCLC = test system: A549 NSCLC
# NCI-H226 lung = test system: NCI-H226 lung
# NCI-H522 lung = test system: NCI-H522 lung
# HL-60(TB) leukemia = test system: HL-60(TB) leukemia
# ACHN renal = test system: ACHN renal
# SF-268 CNS = test system: SF-268 CNS
# OVCAR-8 ovarian = test system: OVCAR-8 ovarian
# SR leukemia = test system: SR leukemia
# SF-539 CNS = test system: SF-539 CNS
# SNB-75 CNS = test system: SNB-75 CNS
# SW-620 colon = test system: SW-620 colon
# KM12 colon = test system: KM12 colon
# SNB-19 CNS = test system: SNB-19 CNS
# MDA-MB-231 breast = test system: MDA-MB-231 breast
# HT29 colon = test system: HT29 colon
# OVCAR-5 ovarian = test system: OVCAR-5 ovarian
# A498 renal = test system: A498 renal
# UACC-257 melanoma = test system: UACC-257 melanoma
# RPMI-8226 leukemia = test system: RPMI-8226 leukemia
# COLO 205 colon = test system: COLO 205 colon
# RXF 393 renal = test system: RXF 393 renal
# UACC-62 melanoma = test system: UACC-62 melanoma
# IGROV1 ovarian = test system: IGROV1 ovarian
# EKVX NSCLC = test system: EKVX NSCLC
# OVCAR-4 ovarian = test system: OVCAR-4 ovarian
# HOP-92 NSCLC = test system: HOP-92 NSCLC
# NCI/ADR-RES ovarian = test system: NCI/ADR-RES ovarian
# UO-31 renal = test system: UO-31 renal
# SK-MEL-5 melanoma = test system: SK-MEL-5 melanoma
# HCC-2998 colon = test system: HCC-2998 colon
# HS 578T breast = test system: HS 578T breast
# OVCAR-3 ovarian = test system: OVCAR-3 ovarian
# PC-3 prostate = test system: PC-3 prostate
# SK-MEL-28 melanoma = test system: SK-MEL-28 melanoma
# MOLT-4 leukemia = test system: MOLT-4 leukemia
# K-562 leukemia = test system: K-562 leukemia
# BT-549 breast = test system: BT-549 breast
# NCI-H23 lung = test system: NCI-H23 lung
# T-47D breast = test system: T-47D breast
# SF-295 CNS = test system: SF-295 CNS
# SK-OV-3 ovarian = test system: SK-OV-3 ovarian
# LOX IMVI melanoma = test system: LOX IMVI melanoma
# SK-MEL-2 melanoma = test system: SK-MEL-2 melanoma
# MDA-MB-435 = test system: MDA-MB-435
# SN12C renal = test system: SN12C renal
# M14 melanoma = test system: M14 melanoma
# HCT-116 colon = test system: HCT-116 colon
# MCF7 breast = test system: MCF7 breast
# CAKI-1 renal = test system: CAKI-1 renal
structure (smiles),measurement,setting,value
[2H]c1nc(C)nc([2H])c1-c1cc(NC[C@@H](C)c2cccc3c(C(=O)NC)ccnc23)ncn1,GI50,HCT-15 colon,> 100 µM
same,TGI,HCT-15 colon,> 100 µM
same,GI50,CCRF-CEM leukemia,65.1 µM
same,TGI,CCRF-CEM leukemia,> 100 µM
same,GI50,786-0 renal,> 100 µM
same,TGI,786-0 renal,> 100 µM
same,GI50,DU-145 prostate,> 100 µM
same,TGI,DU-145 prostate,> 100 µM
same,GI50,U251 CNS,> 100 µM
same,TGI,U251 CNS,> 100 µM
same,GI50,NCI-H460 lung,> 100 µM
same,TGI,NCI-H460 lung,> 100 µM
same,GI50,MALME-3M melanoma,> 100 µM
same,TGI,MALME-3M melanoma,> 100 µM
same,GI50,HOP-62 NSCLC,> 100 µM
same,TGI,HOP-62 NSCLC,> 100 µM
same,GI50,TK-10 renal,> 100 µM
same,TGI,TK-10 renal,> 100 µM
same,GI50,A549 NSCLC,> 100 µM
same,TGI,A549 NSCLC,> 100 µM
same,GI50,NCI-H226 lung,> 100 µM
same,TGI,NCI-H226 lung,> 100 µM
same,GI50,NCI-H522 lung,46.4 µM
same,TGI,NCI-H522 lung,> 100 µM
same,GI50,HL-60(TB) leukemia,> 100 µM
same,TGI,HL-60(TB) leukemia,> 100 µM
same,GI50,ACHN renal,> 100 µM
same,TGI,ACHN renal,> 100 µM
same,GI50,SF-268 CNS,> 100 µM
same,TGI,SF-268 CNS,> 100 µM
same,GI50,OVCAR-8 ovarian,> 100 µM
same,TGI,OVCAR-8 ovarian,> 100 µM
same,GI50,SR leukemia,63.1 µM
same,TGI,SR leukemia,> 100 µM
same,GI50,SF-539 CNS,> 100 µM
same,TGI,SF-539 CNS,> 100 µM
same,GI50,SNB-75 CNS,> 100 µM
same,TGI,SNB-75 CNS,> 100 µM
same,GI50,SW-620 colon,> 100 µM
same,TGI,SW-620 colon,> 100 µM
same,GI50,KM12 colon,> 100 µM
same,TGI,KM12 colon,> 100 µM
same,GI50,SNB-19 CNS,> 100 µM
same,TGI,SNB-19 CNS,> 100 µM
same,GI50,MDA-MB-231 breast,> 100 µM
same,TGI,MDA-MB-231 breast,> 100 µM
same,GI50,HT29 colon,> 100 µM
same,TGI,HT29 colon,> 100 µM
same,GI50,OVCAR-5 ovarian,> 100 µM
same,TGI,OVCAR-5 ovarian,> 100 µM
same,GI50,A498 renal,> 100 µM
same,TGI,A498 renal,> 100 µM
same,GI50,UACC-257 melanoma,> 100 µM
same,TGI,UACC-257 melanoma,> 100 µM
same,GI50,RPMI-8226 leukemia,78.5 µM
same,TGI,RPMI-8226 leukemia,> 100 µM
same,GI50,COLO 205 colon,> 100 µM
same,TGI,COLO 205 colon,> 100 µM
same,GI50,RXF 393 renal,> 100 µM
same,TGI,RXF 393 renal,> 100 µM
same,GI50,UACC-62 melanoma,90.9 µM
same,TGI,UACC-62 melanoma,> 100 µM
same,GI50,IGROV1 ovarian,> 100 µM
same,TGI,IGROV1 ovarian,> 100 µM
same,GI50,EKVX NSCLC,> 100 µM
same,TGI,EKVX NSCLC,> 100 µM
same,GI50,OVCAR-4 ovarian,> 100 µM
same,TGI,OVCAR-4 ovarian,> 100 µM
same,GI50,HOP-92 NSCLC,> 100 µM
same,TGI,HOP-92 NSCLC,> 100 µM
same,GI50,NCI/ADR-RES ovarian,> 100 µM
same,TGI,NCI/ADR-RES ovarian,> 100 µM
same,GI50,UO-31 renal,> 100 µM
same,TGI,UO-31 renal,> 100 µM
same,GI50,SK-MEL-5 melanoma,60.1 µM
same,TGI,SK-MEL-5 melanoma,> 100 µM
same,GI50,HCC-2998 colon,> 100 µM
same,TGI,HCC-2998 colon,> 100 µM
same,GI50,HS 578T breast,> 100 µM
same,TGI,HS 578T breast,> 100 µM
same,GI50,OVCAR-3 ovarian,> 100 µM
same,TGI,OVCAR-3 ovarian,> 100 µM
same,GI50,PC-3 prostate,> 100 µM
same,TGI,PC-3 prostate,> 100 µM
same,GI50,SK-MEL-28 melanoma,> 100 µM
same,TGI,SK-MEL-28 melanoma,> 100 µM
same,GI50,MOLT-4 leukemia,> 100 µM
same,TGI,MOLT-4 leukemia,> 100 µM
same,GI50,K-562 leukemia,80.6 µM
same,TGI,K-562 leukemia,> 100 µM
same,GI50,BT-549 breast,> 100 µM
same,TGI,BT-549 breast,> 100 µM
same,GI50,NCI-H23 lung,> 100 µM
same,TGI,NCI-H23 lung,> 100 µM
same,GI50,T-47D breast,29 µM
same,TGI,T-47D breast,> 100 µM
same,GI50,SF-295 CNS,> 100 µM
same,TGI,SF-295 CNS,> 100 µM
same,GI50,SK-OV-3 ovarian,> 100 µM
same,TGI,SK-OV-3 ovarian,> 100 µM
same,GI50,LOX IMVI melanoma,> 100 µM
same,TGI,LOX IMVI melanoma,> 100 µM
same,GI50,SK-MEL-2 melanoma,> 100 µM
same,TGI,SK-MEL-2 melanoma,> 100 µM
same,GI50,MDA-MB-435,32.7 µM
same,TGI,MDA-MB-435,> 100 µM
same,GI50,SN12C renal,> 100 µM
same,TGI,SN12C renal,> 100 µM
same,GI50,M14 melanoma,> 100 µM
same,TGI,M14 melanoma,> 100 µM
CN(CCCNC(=O)c1nn(-c2ccccc2)c2c1ccc1ccccc12)CCCNC(=O)c1nn(-c2ccccc2)c2c1ccc1ccccc12,TGI,HCT-15 colon,3.16 µM
same,TGI,CCRF-CEM leukemia,0.628 µM
same,TGI,DU-145 prostate,3.92 µM
same,TGI,U251 CNS,3.01 µM
same,TGI,NCI-H460 lung,2.97 µM
same,TGI,MALME-3M melanoma,3.47 µM
same,TGI,HCT-116 colon,3.13 µM
same,TGI,HOP-62 NSCLC,3.69 µM
same,TGI,TK-10 renal,3.58 µM
same,TGI,A549 NSCLC,2.85 µM
same,TGI,NCI-H522 lung,3.17 µM
same,TGI,HL-60(TB) leukemia,3.07 µM
same,TGI,ACHN renal,3.17 µM
same,TGI,SF-268 CNS,3.39 µM
same,TGI,OVCAR-8 ovarian,3.38 µM
same,TGI,SR leukemia,2.75 µM
same,TGI,SF-539 CNS,3.62 µM
same,TGI,SNB-75 CNS,2.88 µM
same,TGI,KM12 colon,3.96 µM
same,TGI,SNB-19 CNS,3.29 µM
same,TGI,HT29 colon,3.2 µM
same,TGI,OVCAR-5 ovarian,5.24 µM
same,TGI,UACC-257 melanoma,3.65 µM
same,TGI,COLO 205 colon,3.63 µM
same,TGI,UACC-62 melanoma,3.03 µM
same,TGI,IGROV1 ovarian,2.87 µM
same,TGI,EKVX NSCLC,3.1 µM
same,TGI,MCF7 breast,3.32 µM
same,TGI,OVCAR-4 ovarian,3.02 µM
same,TGI,NCI/ADR-RES ovarian,3.53 µM
same,TGI,UO-31 renal,2.91 µM
same,TGI,HS 578T breast,> 100 µM
same,TGI,OVCAR-3 ovarian,2.73 µM
same,TGI,PC-3 prostate,2.77 µM
same,TGI,SK-MEL-28 melanoma,3.01 µM
same,TGI,MOLT-4 leukemia,3.42 µM
same,TGI,BT-549 breast,3.04 µM
same,TGI,T-47D breast,3.78 µM
same,TGI,SF-295 CNS,3.69 µM
same,TGI,CAKI-1 renal,2.7 µM
same,TGI,SK-OV-3 ovarian,3.38 µM
same,TGI,LOX IMVI melanoma,2.95 µM
same,TGI,SK-MEL-2 melanoma,3.15 µM
same,TGI,MDA-MB-435,2.92 µM
same,TGI,SN12C renal,3.32 µM
same,TGI,M14 melanoma,3.16 µM
